In patent publication US12384776B2, “Compounds and uses thereof” (Foghorn Therapeutics Inc., priority 2019, dated 2025):

Each compound was assayed against Nanoluciferase-BRD9 fusion protein (3×FLAG-NLuc-BRD9) in SYO-1 cells (Homo sapiens (Human), UniProt Q9H8M2) (assay: SYO1 BRD9 NanoLuc degradation assay). Conditions: SYO-1 cells expressing 3×FLAG-NLuc-BRD9, 6 hours incubation, top dose 1 μM.
Format: cell-based
Summary of the method: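 Stable SYO-1 line expressing 3×FLAG-NLuc-BRD9, treated with 10-point 3-fold dilutions (top 1 μM final) for 6 hours. Nanoluciferase luminescence read with Nano-Glo reagent. % inhibition relative to DMSO (high control) and 1 μM reference BRD9 degrader (low control).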

Sequence of Nanoluciferase-BRD9 fusion protein (3×FLAG-NLuc-BRD9) in SYO-1 cells (Q9H8M2 whole entry, the tested form may be a part): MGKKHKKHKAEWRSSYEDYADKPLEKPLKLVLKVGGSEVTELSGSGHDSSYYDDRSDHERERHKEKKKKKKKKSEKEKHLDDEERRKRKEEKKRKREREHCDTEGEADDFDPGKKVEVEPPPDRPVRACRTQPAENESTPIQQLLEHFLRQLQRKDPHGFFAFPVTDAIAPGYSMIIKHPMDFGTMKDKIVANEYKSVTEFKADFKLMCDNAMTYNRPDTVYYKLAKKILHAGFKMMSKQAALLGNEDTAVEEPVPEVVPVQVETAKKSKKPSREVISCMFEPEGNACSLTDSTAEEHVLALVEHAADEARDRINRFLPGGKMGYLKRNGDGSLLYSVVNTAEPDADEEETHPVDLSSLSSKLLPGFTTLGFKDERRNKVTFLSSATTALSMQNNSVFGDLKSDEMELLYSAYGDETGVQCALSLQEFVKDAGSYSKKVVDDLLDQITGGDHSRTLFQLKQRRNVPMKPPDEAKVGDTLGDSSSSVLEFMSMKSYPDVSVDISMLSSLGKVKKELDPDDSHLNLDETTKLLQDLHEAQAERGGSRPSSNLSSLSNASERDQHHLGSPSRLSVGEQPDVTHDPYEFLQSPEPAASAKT

Row | Structure (SMILES) | IC50
1 | COc1cc(-c2cn(C)c(=O)c3c2CCN(C(=O)NC2CC4CN(CCOc5ccc6c(c5)C(=O)N(C5CCC(=O)NC5=O)C6=O)CC4C2)C3)cc(OC)c1CN(C)C (stereo not drawn) [Compound D273] | 100 to 1000 nM
2 | COc1cc(-c2cn(C)c(=O)c3c2CCN(C(=O)NC2CCC4(CCN(CCCN5CCN(c6ccc7c(c6)C(=O)N(C6CCC(=O)NC6=O)C7=O)CC5)C4)C2)C3)cc(OC)c1CN(C)C (stereo not drawn) [Compound D214] | 100 to 1000 nM
3 | CNC(=O)N1CCc2c(-c3cc(OC)c(CN(C)CC45CC(C(=O)NCCCCCOc6cccc7c6C(=O)N(C6CCC(=O)NC6=O)C7=O)(C4)C5)c(OC)c3)cn(C)c(=O)c2C1 (stereo not drawn) [Compound D288] | 100 to 1000 nM
4 | COc1cc(-c2cn(C)c(=O)c3c2CCN(C(=O)NC2CC4(CCN(CCCOc5ccc6c(c5)C(=O)N(C5CCC(=O)NC5=O)C6=O)CC4)C2)C3)cc(OC)c1CN(C)C (stereo not drawn) [Compound D252] | 100 to 1000 nM
5 | COc1cc(-c2cn(C)c(=O)c3c2CCN(C(=O)NCC2CCC4(CCN(c5ccc6c(c5)C(=O)N(C5CCC(=O)NC5=O)C6=O)CC4)O2)C3)cc(OC)c1CN(C)C (stereo not drawn) [Compound D120] | 100 to 1000 nM
6 | COc1cc(-c2cn(C)c(=O)c3c2CCN(C(=O)NCC2CC4(C2)CN(CCCCN2CCN(c5ccc6c(c5)C(=O)N(C5CCC(=O)NC5=O)C6=O)CC2)C4)C3)cc(OC)c1CN(C)C (stereo not drawn) [Compound D219] | 100 to 1000 nM
7 | COc1cc(-c2cn(C)c(=O)c3c2CCN(C(=O)NC2CCC4(CCN(CCOc5ccc6c(c5)C(=O)N(C5CCC(=O)NC5=O)C6=O)C4)C2)C3)cc(OC)c1CN(C)C (stereo not drawn) [Compound D215] | 100 to 1000 nM
8 | CNC(=O)N1CCc2c(-c3cc(OC)c(CN4CCN(C5CNC5)CC4)c(OC)c3)cn(C)c(=O)c2C1 [Compound B23] | ≥ 1000 nM
9 | COc1cc(-c2cn(C)c(=O)c3c2CCN(C(=O)NCCCN2CCC4(CCN(c5ccc6c(c5)C(=O)N(C5CCC(=O)NC5=O)C6=O)C4)C2)C3)cc(OC)c1CN(C)C (stereo not drawn) [Compound D208] | 10 to 100 nM

Second part, the compound after the results:

Row | IC50 | Structure (SMILES)
10 | < 10 nM | CNC(=O)N1CCc2c(-c3cc(OC)c(CN4CCC(CCN5Cc6cc7c(cc6C5)C(=O)N(C5CCC(=O)NC5=O)C7=O)CC4)c(OC)c3)cn(C)c(=O)c2C1 (stereo not drawn) [Compound D179]
11 | 10 to 100 nM | COc1cc(-c2cn(C)c(=O)c3c2CCN(C(=O)NCCN2CCC4(CC2)CN(c2ccc5c(c2)C(=O)N(C2CCC(=O)NC2=O)C5=O)C4)C3)cc(OC)c1CN(C)C (stereo not drawn) [Compound D212]
12 | < 10 nM | [2H]C1([2H])N(CCC2CCN(c3ccc4c(c3)C(=O)N(C3CCC(=O)NC3=O)C4=O)CC2)C([2H])([2H])C([2H])([2H])N(Cc2c(OC)cc(-c3cn(C)c(=O)c4c3CCN(C(=O)NC)C4)cc2OC)C1([2H])[2H] (stereo not drawn) [Compound D105]
13 | < 10 nM | CNC(=O)N1CCc2c(-c3cc(OC)c(CN4CCN(CC5CCN(c6ccc7c(c6)CN(C6CCC(=O)NC6=O)C7=O)CC5)CC4)c(OC)c3)cn(C)c(=O)c2C1 (stereo not drawn) [Compound D39]
14 | < 10 nM | CNC(=O)N1CCc2c(-c3cc(OC)c(CN4CCC(CCN5CCN(c6ccc7c(c6)C(=O)N(C6CCC(=O)N(COC(=O)OC(C)C)C6=O)C7=O)CC5)CC4)c(OC)c3)cn(C)c(=O)c2C1 (stereo not drawn) [Compound D82]
15 | < 10 nM | [2H]C([2H])([2H])n1cc(-c2cc(OC)c(CN3CCN(CCC4CCN(c5ccc6c(c5)C(=O)N(C5CCC(=O)NC5=O)C6=O)CC4)CC3)c(OC)c2)c2c(c1=O)CN(C(=O)NC)CC2 (stereo not drawn) [Compound D45]
16 | 10 to 100 nM | CNC(=O)N1CCc2c(-c3cc(OC)c(C(C)N4CC(CN5CCC6(CC5)CN(c5ccc7c(c5)C(=O)N(C5CCC(=O)NC5=O)C7)C6)C4)c(OC)c3)cn(C)c(=O)c2C1 (stereo not drawn) [Compound D59]
17 | 10 to 100 nM | COc1cc(-c2cn(C)c(=O)c3c2CCN(C(=O)NCCCCCOc2cccc4c2C(=O)N(C2CCC(=O)NC2=O)C4=O)C3)cc(OC)c1CN1CCC1 (stereo not drawn) [Compound D90]
18 | < 10 nM | COc1cc(-c2cn(C)c(=O)c3c2OCCN3)cc(OC)c1CN1CC(CN2CCC3(CC2)CN(c2ccc4c(c2)C(=O)N(C2CCC(=O)NC2=O)C4)C3)C1 (stereo not drawn) [Compound D66]
19 | < 10 nM | COc1cc(-c2cn(C)c(=O)c3c2CCN(C(=O)NCCCN2CCC(N4CCN(c5ccc6c(c5)C(=O)N(C5CCC(=O)NC5=O)C6=O)CC4)C2)C3)cc(OC)c1CN(C)C (stereo not drawn) [Compound D227]
20 | < 10 nM | CNC(=O)N1CCc2c(-c3cc(OC)c(CN4CCN(CCN5CCC(c6ccc7c(c6)C(=O)N(C6CCC(=O)NC6=O)C7=O)CC5)CC4)c(OC)c3)cn(C)c(=O)c2C1 (stereo not drawn) [Compound D117]
21 | < 10 nM | CNC(=O)N1CCc2c(-c3cc(OC)c(CN4CCC5(CCC(N6Cc7cc8c(cc7C6)C(=O)N(C6CCC(=O)NC6=O)C8=O)CC5)CC4)c(OC)c3)cn(C)c(=O)c2C1 (stereo not drawn) [Compound D181]
22 | < 10 nM | CNC(=O)N1CCc2c(-c3cc(OC)c(CN4CCC(N5CCN(c6ccc7c(c6)C(=O)N(C6CCC(=O)NC6=O)C7=O)CC5)CC4)c(OC)c3)cn(C)c(=O)c2C1 (stereo not drawn) [Compound D201]
23 | < 10 nM | COc1cc(-c2cn(C)c(=O)c3c2CCN(C(=O)NC2CC2)C3)cc(OC)c1CN1CCC(CCN2CCN(c3ccc4c(c3)C(=O)N(C3CCC(=O)NC3=O)C4=O)CC2)CC1 (stereo not drawn) [Compound D81]
24 | < 10 nM | CNC(=O)N1CCc2c(-c3cc(OC)c(CN4CC(C#Cc5ccc6c(c5)C(=O)N(C5CCC(=O)NC5=O)C6=O)C4)c(OC)c3)cn(C)c(=O)c2C1 (stereo not drawn) [Compound D142]
25 | 10 to 100 nM | COc1cc(-c2cn(C)c(=O)c3c2CCN(C(=O)NCCCN2CCC(OC4CCN(c5ccc6c(c5)C(=O)N(C5CCC(=O)NC5=O)C6=O)CC4)CC2)C3)cc(OC)c1CN(C)C (stereo not drawn) [Compound D223]
26 | 10 to 100 nM | CNC(=O)N1CCc2c(-c3cc(OC)c(CN(C)C45CC(C(=O)NCCCCCOc6ccc7c(c6)C(=O)N(C6CCC(=O)NC6=O)C7=O)(C4)C5)c(OC)c3)cn(C)c(=O)c2C1 (stereo not drawn) [Compound D276]
27 | < 10 nM | CNC(=O)N1CCc2c(-c3cc(OC)c(CN4CCC(CCN5CCC6(CC5)CC(Oc5ccc7c(c5)C(=O)N(C5CCC(=O)NC5=O)C7=O)C6)CC4)c(OC)c3)cn(C)c(=O)c2C1 (stereo not drawn) [Compound D251]
28 | < 10 nM | COC(=O)N1CCc2c(-c3cc(OC)c(CN4CCC(CCN5CCN(c6ccc7c(c6)C(=O)N(C6CCC(=O)NC6=O)C7=O)CC5)CC4)c(OC)c3)cn(C)c(=O)c2C1 (stereo not drawn) [Compound D64]
29 | < 10 nM | CNC(=O)N1CCc2c(-c3cc(OC)c(CN4CCC(CCN5CCN(c6ccc7c(c6OC)CN(C6CCC(=O)NC6=O)C7=O)CC5)CC4)c(OC)c3)cn(C)c(=O)c2C1 (stereo not drawn) [Compound D49]
30 | < 10 nM | CNC(=O)N1CCc2c(-c3cc(OC)c(CN4CCC5(CC4)CN(CCCN4CCN(c6ccc7c(c6)C(=O)N(C6CCC(=O)NC6=O)C7=O)CC4)CCO5)c(OC)c3)cn(C)c(=O)c2C1 (stereo not drawn) [Compound D140]
31 | < 10 nM | CNC(=O)N1CCc2c(-c3cc(OC)c(CN4CCN(CCN5CCC(c6ccc7c(c6)CN(C6CCC(=O)NC6=O)C7=O)CC5)CC4)c(OC)c3)cn(C)c(=O)c2C1 (stereo not drawn) [Compound D72]
32 | < 10 nM | CNC(=O)N1CCc2c(-c3cc(OC)c(CN4CC(C(C)N5CCC6(CC5)CN(c5ccc7c(c5)C(=O)N(C5CCC(=O)NC5=O)C7)C6)C4)c(OC)c3)cn(C)c(=O)c2C1 (stereo not drawn) [Compound D52]

Same assay, conditions: SYO-1 cells, 6 hours, Table 6A

Row | IC50 | Structure (SMILES)
33 | > 100 nM | CNC(=O)N1CCc2c(-c3cc(OC)c(CN4CCC5(CC4)CN(C(=O)CCCOc4cccc6c4C(=O)N(C4CCC(=O)NC4=O)C6=O)CCO5)c(OC)c3)cn(C)c(=O)c2C1 (stereo not drawn) [Compound D3, 5-(4-[[4-(4-[[2-(2,6-dioxopiperidin-3-yl)-1,3-dioxoisoindol-4-yl]oxy]butanoyl)-1-oxa-4,9-diazaspiro[5.5]undecan-9-yl]methyl]-3,5-dimethoxyphenyl)-N,7-dimethyl-8-oxo-3,4-dihydro-1H-2,7-naphthyridine-2-carboxamide]

Same assay, conditions: SYO-1 cells, 6 hours, Table 6C

Row | IC50 | Structure (SMILES)
34 | < 10 nM | CNC(=O)N1CCc2c(-c3cc(OC)c(CN4CCN(CCC5CCN(c6ccc7c(c6)CN(C6CCC(=O)NC6=O)C7=O)CC5)CC45CC5)c(OC)c3)cn(C)c(=O)c2C1 (stereo not drawn) [Compound D310]
35 | < 10 nM | CNC(=O)N1CCc2c(-c3cc(OC)c(CN4CCC(CN5CCC6(CC5)CC(Oc5ccc7c(c5)C(=O)N(C5CCC(=O)NC5=O)C7=O)C6)CC4)c(OC)c3)cn(CF)c(=O)c2C1 (stereo not drawn) [Compound D347]
36 | < 10 nM | COc1cc(-c2cn(C)c(=O)c3c2COC3)cc(OC)c1CN1CCC(C#Cc2ccc3c(c2)C(=O)N(C2CCC(=O)NC2=O)C3)CC1 (stereo not drawn) [Compound D370]
37 | < 10 nM | CNC(=O)N1CCc2c(-c3cc(OC)c(CN4CCN(CCC5CCN(c6ccc7c(c6)CN(C6CCC(=O)NC6=O)C7=O)CC5)CC45CCC5)c(OC)c3)cn(C)c(=O)c2C1 (stereo not drawn) [Compound D321]
38 | ≥ 1000 nM | COc1cc(-c2cn(C)c(=O)c3c2CCC3)cc(OC)c1CN1CCC2(CC1)CN(c1cccc(N3CCC(=O)NC3=O)c1)C2 [Compound D375]
39 | < 10 nM | [2H]C([2H])([2H])NC(=O)N1CCc2c(-c3cc(OC)c(CN4[C@H](C)CN(CCC5CCN(c6ccc7c(c6)CN(C6CCC(=O)NC6=O)C7=O)CC5)C[C@H]4C)c(OC)c3)cn(C)c(=O)c2C1 (stereo partly drawn) [Compound D324]
40 | < 10 nM | COc1cc(-c2cn(C)c(=O)c3c2CCC3)cc(OC)c1CN1CCN(CCC2CCN(c3ccc4c(c3)C(=O)N(C3CCC(=O)NC3=O)C4)CC2)CC1 (stereo not drawn) [Compound D348]
41 | < 10 nM | CNC(=O)N1CCc2c(-c3cc(OC)c(CN4CCC(CN5CCC6(CN(c7ccc8c(c7)C(=O)N(C7CCC(=O)NC7=O)C8)C6)C(F)(F)C5)CC4)c(OC)c3)cn(C)c(=O)c2C1 (stereo not drawn) [Compound D315]
42 | < 10 nM | COc1cc(-c2cn(C)c(=O)c3c2COC3)cc(OC)c1CN1CC(C#Cc2ccc3c(c2)CN(C2CCC(=O)NC2=O)C3=O)C1 (stereo not drawn) [Compound D368]
43 | < 10 nM | COc1cc(-c2cn(C)c(=O)c3c2CCN(C(=O)NCC(F)F)C3)cc(OC)c1CN1CCN(CCC2CCN(c3ccc4c(c3)C(=O)N(C3CCC(=O)NC3=O)C4)CC2)CC12CC2 (stereo not drawn) [Compound D312]
44 | < 10 nM | CNC(=O)N1CCc2c(-c3cc(OC)c(CN4CCC(C(N5CCC6(CC5)CC(Oc5ccc7c(c5)C(=O)N(C5CCC(=O)NC5=O)C7)C6)C(F)(F)F)CC4)c(OC)c3)cn(C)c(=O)c2C1 (stereo not drawn) [Compound D345]
45 | < 10 nM | COc1cc(-c2cn(C)c(=O)c3c2CCN(C(=O)NCC(F)F)C3)cc(OC)c1CN(C)c1ccc2c(c1)C(=O)N(C1CCC(=O)NC1=O)C2 (stereo not drawn) [Compound D307]
